Values quoted from earlier work, collected in patent US8821913B2, “Controlled releases system containing temozolomide” (Tasly Holding Group Co., Ltd., priority 2002, dated 2014).
Read-outs that look alike come from different tables or passages of the source.

Assays:
[1] = mouse
[2] = phase I clinical trial

half-life time ([1]; i.p.): 1.13 h
half-life time ([1]; p.o.): 1.29 h
half-life time [2]: 1.8 h
time to reach maximum plasma concentration [2]: ≤ 0.7 h
SMILES: Cn1nnc2c(C(N)=O)ncn2c1=O [TMZ, Temozolomide]
